Broadly, the Tm is the temperature at the midpoint of the melting transition.

This note sets out measurements from ChEMBL document CHEMBL1126714, “Structure, DNA minor groove binding, and base pair specificity of alkyl- and aryl-linked bis(amidinobenzimidazoles) and bis(amidinoindoles)” (J Med Chem, 1993).

What all share (type): nucleic-acid assay
The test system of assay [1] is Nucleic Acid. Description: Ratio between poly-dAdT and poly-dGdC binding.
In assay [2] the test system is Nucleic Acid. Description: Thermal denaturation in sonicated poly(dA)-poly(dT) homopolymer (AT).
For assay [3], the system named is Nucleic Acid. Description: Thermal denaturation in alternating poly(dA-dT)poly(dA-dT) homopolymer (AT).
A further assay relates to Calf thymus DNA. Description: Thermal denaturation in sonicated calf thymus DNA (CT DNA). The settings on record: Bos taurus.
For assay [4], the system named is Nucleic Acid. Description: Thermal denaturation in alternating poly(dG-dC)-poly(dG-dC) homopolymer (GC).

On to `c1c[nH]c(-c2ccc(-c3cc4ccc(-c5ncc[nH]5)cc4[nH]3)cc2)n1`, for which, in the assay with Nucleic Acid [1], the Ratio worked out at 5. Also, the Tm worked out at 45.3 °C in the assay on Nucleic Acid [2], 42.7 °C in the assay with Nucleic Acid [3], 22.4 °C in the assay on Calf thymus DNA and 9.4 °C in the assay on Nucleic Acid [4].
The like results for `c1cc2[nH]c(CCCCc3nc4cc(C5=NCCN5)ccc4[nH]3)nc2cc1C1=NCCN1` were, in that order, 6, 34.5 °C, 28.9 °C, 15.3 °C and 4.6 °C.
In the case of `N=C(N)c1ccc2nc(Cc3nc4ccc(C(=N)N)cc4[nH]3)[nH]c2c1`, the Ratio with Nucleic Acid [1] turned out to be 3. For the same molecule, the Tm turned out to be 9.2 °C with Nucleic Acid [2], 11.5 °C in the assay with Nucleic Acid [3], 7.6 °C in the assay with Calf thymus DNA and 3.5 °C in the assay on Nucleic Acid [4].
Take `CN1CCN(c2ccc3[nH]c(-c4ccc5[nH]c(-c6ccc(O)cc6)nc5c4)nc3c2)CC1`: the Ratio with Nucleic Acid [1] is 10. For the same molecule, the Tm with Nucleic Acid [2] was 32.4 °C; in the assay on Nucleic Acid [3] it was 24.1 °C; in the assay with Calf thymus DNA it was 14.1 °C; with Nucleic Acid [4], 2.5 °C.
In the case of `C1=NCCCN1Cc1ccc2[nH]c(CCc3nc4cc(CN5C=NCCC5)ccc4[nH]3)nc2c1`, in the assay on Nucleic Acid [1], the Ratio turned out to be 18. Besides, the Tm in the assay on Nucleic Acid [2] was 30.7 °C; with Nucleic Acid [3] it was 28.9 °C; with Calf thymus DNA, 13.3 °C; in the assay with Nucleic Acid [4], 1.6 °C.
For the molecule `C/C(=C(/C)c1nc2cc(C(=N)N)ccc2[nH]1)c1nc2cc(C(=N)N)ccc2[nH]1`, the Ratio with Nucleic Acid [1] was 3. Also, the Tm is 17.3 °C in the assay on Nucleic Acid [2], 15.6 °C in the assay with Nucleic Acid [3], 14.1 °C with Calf thymus DNA and 4.6 °C with Nucleic Acid [4].
`N=C(N)c1ccc2[nH]c(-c3ccc(-c4nc5cc(C(=N)N)ccc5[nH]4)cc3)nc2c1`: in the assay with Nucleic Acid [1], the Ratio was 7. In addition, the Tm in the assay on Nucleic Acid [2] was found to be 27.5 °C; in the assay with Nucleic Acid [3], 21.7 °C; with Calf thymus DNA, 13.3 °C; with Nucleic Acid [4], 3.1 °C.
For `N=C(N)c1ccc2[nH]c(/C=C/c3nc4cc(C(=N)N)ccc4[nH]3)nc2c1`, in that order: 7, 46.1 °C, 42.4 °C, 21.8 °C and 5.8 °C.
Regarding `c1ccc2[nH]c(CCc3nc4ccccc4[nH]3)nc2c1`, the Tm in the assay on Nucleic Acid [2] amounted to 2.1 °C; in the assay on Nucleic Acid [3], 0.1 °C; in the assay on Calf thymus DNA it was 4.3 °C; in the assay with Nucleic Acid [4], 1 °C.
In the case of `CC(C)NC(=N)c1ccc2[nH]c(/C=C/c3nc4cc(C(=N)NC(C)C)ccc4[nH]3)nc2c1`, the Ratio in the assay on Nucleic Acid [1] was 5. For the same molecule, the Tm in the assay on Nucleic Acid [2] stood at 31.6 °C; in the assay on Nucleic Acid [3] it was 22.5 °C; in the assay with Calf thymus DNA it was 22.8 °C; in the assay on Nucleic Acid [4] it was 5.5 °C.
For the molecule `N=C(N)c1ccc2c(ccn2Cc2cccc(Cn3ccc4cc(C(=N)N)ccc43)c2)c1`, the Ratio with Nucleic Acid [1] came out at 2.3. For the same molecule, the Tm is 8.1 °C with Nucleic Acid [2], 9.2 °C in the assay with Nucleic Acid [3], 8.1 °C in the assay on Calf thymus DNA and 4 °C with Nucleic Acid [4].
Take `N=C(N)c1ccc2c(ccn2CCCCCCn2ccc3cc(C(=N)N)ccc32)c1`: the Ratio in the assay on Nucleic Acid [1] amounted to 2.3. Also, the Tm in the assay with Nucleic Acid [2] is 17.7 °C; in the assay with Nucleic Acid [3], 13.4 °C; with Calf thymus DNA, 10.5 °C; with Nucleic Acid [4], 5.9 °C.
For the molecule `N=C(N)c1ccc2[nH]c(Cc3nc4ccccc4[nH]3)nc2c1`, the midpoint of thermal melting (Tm) in the assay on Nucleic Acid [2] stood at 1.3 °C; in the assay with Nucleic Acid [3], 1 °C; in the assay on Calf thymus DNA, 1.4 °C; with Nucleic Acid [4], 0.2 °C.
As to `N=C(N)c1ccc2[nH]c(-c3cccc(-c4nc5cc(C(=N)N)ccc5[nH]4)c3)nc2c1`, the Ratio in the assay with Nucleic Acid [1] worked out at 4. Besides, the Tm with Nucleic Acid [2] came out at 34.6 °C; in the assay with Nucleic Acid [3], 23.9 °C; with Calf thymus DNA, 12.8 °C; in the assay with Nucleic Acid [4], 5.6 °C.
For `CC(C)NC(=N)c1ccc2[nH]c(CCc3nc4cc(C(=N)NC(C)C)ccc4[nH]3)nc2c1`, in that order: 10, 37.3 °C, 32.9 °C, 19.2 °C and 3.3 °C.
Take `Cc1cc(-c2nc3cc(C(=N)N)ccc3[nH]2)c(C)cc1-c1nc2cc(C(=N)N)ccc2[nH]1`: the Ratio with Nucleic Acid [1] was 7. The Tm with Nucleic Acid [2] is 29 °C; with Nucleic Acid [3], 26.5 °C; with Calf thymus DNA, 15.6 °C; with Nucleic Acid [4], 3.7 °C.
Turning to `N=C(N)c1ccc2c(ccn2CCCCn2ccc3cc(C(=N)N)ccc32)c1`, the Ratio in the assay with Nucleic Acid [1] was 2.2. Further, the Tm with Nucleic Acid [2] turned out to be 18.2 °C; in the assay on Nucleic Acid [3], 16.3 °C; in the assay on Calf thymus DNA, 12.1 °C; with Nucleic Acid [4], 7.3 °C.
Regarding `N=C(N)c1ccc2c(ccn2CCCn2ccc3cc(C(=N)N)ccc32)c1`, the Ratio in the assay with Nucleic Acid [1] came to 3.1. Besides, the Tm with Nucleic Acid [2] was 19.2 °C; with Nucleic Acid [3], 20.3 °C; in the assay on Calf thymus DNA it was 13.7 °C; with Nucleic Acid [4], 6.5 °C.
As to `N=C(N)c1ccc2c(ccn2Cc2ccc(Cn3ccc4cc(C(=N)N)ccc43)cc2)c1`, the Ratio in the assay with Nucleic Acid [1] turned out to be 2.2. The Tm worked out at 10.8 °C in the assay with Nucleic Acid [2], 11.9 °C in the assay on Nucleic Acid [3], 9.3 °C with Calf thymus DNA and 5.4 °C in the assay on Nucleic Acid [4].
In the case of `N=C(N)c1ccc2[nH]c(CCCCCCCCc3nc4cc(C(=N)N)ccc4[nH]3)nc2c1`, the Ratio in the assay on Nucleic Acid [1] came to 7. Further, the Tm is 22.8 °C with Nucleic Acid [2], 21.2 °C in the assay with Nucleic Acid [3], 10.2 °C with Calf thymus DNA and 3.2 °C in the assay with Nucleic Acid [4].
In the case of `c1cc2[nH]c(CCc3nc4cc(N5CCOCC5)ccc4[nH]3)nc2cc1N1CCOCC1`, the Tm is 0.9 °C in the assay on Nucleic Acid [2], 0.8 °C with Nucleic Acid [3], 0.6 °C with Calf thymus DNA and -0.3 °C with Nucleic Acid [4].
As for `OC/C=N\c1ccc2[nH]c(CCc3nc4cc(/N=C/CO)ccc4[nH]3)nc2c1`, in the assay on Nucleic Acid [1], the Ratio was 3. The Tm is 4.5 °C in the assay on Nucleic Acid [2], 1.4 °C in the assay on Nucleic Acid [3], 2 °C in the assay on Calf thymus DNA and 0.7 °C with Nucleic Acid [4].
The like results for `c1cc2[nH]c(Cc3nc4cc(C5=NCCN5)ccc4[nH]3)nc2cc1C1=NCCN1` were, in that order, 3, 13.5 °C, 10.7 °C, 6.9 °C and 4.1 °C.
Consider `N=C(N)c1ccc2[nH]c(CCCc3nc4cc(C(=N)N)ccc4[nH]3)nc2c1`, for which, in the assay with Nucleic Acid [1], the Ratio was found to be 6. Further, the melting temperature (Tm) amounted to 30.6 °C with Nucleic Acid [2], 20.1 °C in the assay with Nucleic Acid [3], 10.6 °C in the assay on Calf thymus DNA and 3.3 °C in the assay on Nucleic Acid [4].
On to `Nc1ccc2nc(CCc3nc4ccc(N)cc4[nH]3)[nH]c2c1`, for which the Tm in the assay with Nucleic Acid [2] stood at 3 °C; in the assay with Nucleic Acid [3], 0.6 °C; with Calf thymus DNA, 1.6 °C; in the assay on Nucleic Acid [4], 2.6 °C.
`c1cc2[nH]c(CCc3nc4cc(C5=NCCN5)ccc4[nH]3)nc2cc1C1=NCCN1`: the Tm in the assay with Nucleic Acid [2] amounted to 40 °C; in the assay on Nucleic Acid [3], 34.6 °C; in the assay with Calf thymus DNA it was 18.5 °C; with Nucleic Acid [4], 3 °C.
In the case of `c1cc2[nH]c(CCc3nc4cc(C5=NCCCN5)ccc4[nH]3)nc2cc1C1=NCCCN1`, the Ratio with Nucleic Acid [1] was 15. For the same molecule, the Tm with Nucleic Acid [2] is 45.1 °C; in the assay on Nucleic Acid [3] it was 39.5 °C; with Calf thymus DNA it was 19.7 °C; in the assay on Nucleic Acid [4], 2.7 °C.
As to `N=C(N)c1ccc2[nH]c(CCCCc3nc4cc(C(=N)N)ccc4[nH]3)nc2c1`, the Ratio in the assay on Nucleic Acid [1] worked out at 9. For the same molecule, the Tm in the assay with Nucleic Acid [2] was 33.5 °C; with Nucleic Acid [3] it was 31.3 °C; with Calf thymus DNA, 15.9 °C; with Nucleic Acid [4] it was 3.3 °C.
For the molecule `Cn1cc(NC(=O)c2cc(NC(=O)CNC(=N)N)cn2C)cc1C(=O)NCCC(=N)N`, the Ratio with Nucleic Acid [1] worked out at 32. The Tm with Nucleic Acid [2] was determined as 46.6 °C; in the assay with Nucleic Acid [3], 35.1 °C; in the assay on Calf thymus DNA, 19 °C; with Nucleic Acid [4] it was 1.1 °C.
Consider `CNc1ccc2[nH]c(CCc3nc4cc(NC)ccc4[nH]3)nc2c1`, for which, in the assay on Nucleic Acid [1], the Ratio came out at 4. The Tm with Nucleic Acid [2] was 34.2 °C; with Nucleic Acid [3] it was 14.1 °C; in the assay on Calf thymus DNA, 12.8 °C; in the assay with Nucleic Acid [4], 3.9 °C.
With `O=[N+]([O-])c1ccc2[nH]c(CCc3nc4cc([N+](=O)[O-])ccc4[nH]3)nc2c1`, the Tm was 0.5 °C with Nucleic Acid [2], 0.2 °C with Nucleic Acid [3], 1.5 °C in the assay on Calf thymus DNA and 2.6 °C in the assay with Nucleic Acid [4].
In the case of `N=C(N)c1ccc(OCCCCCOc2ccc(C(=N)N)cc2)cc1`, the Ratio with Nucleic Acid [1] was determined as 6. In addition, the Tm in the assay on Nucleic Acid [2] was determined as 22.9 °C; with Nucleic Acid [3], 20.2 °C; in the assay on Calf thymus DNA, 10.7 °C; with Nucleic Acid [4] it was 3.2 °C.
Regarding `N=C(N)c1ccc2[nH]c(CCCCCCc3nc4cc(C(=N)N)ccc4[nH]3)nc2c1`, the Ratio in the assay with Nucleic Acid [1] was determined as 8. Further, the Tm amounted to 34 °C in the assay on Nucleic Acid [2], 28 °C with Nucleic Acid [3], 13.5 °C with Calf thymus DNA and 3.5 °C in the assay on Nucleic Acid [4].
For `N=C(N)c1ccc2[nH]c(CCCCCc3nc4cc(C(=N)N)ccc4[nH]3)nc2c1`, in that order: 5, 24.7 °C, 18.3 °C, 10.1 °C and 3.3 °C.
The like results for `c1cc2[nH]c(CCCc3nc4cc(C5=NCCN5)ccc4[nH]3)nc2cc1C1=NCCN1` were, in that order, 6, 24.8 °C, 20.1 °C, 9.9 °C and 3.3 °C.
Regarding `CC[n+]1c(-c2ccccc2)c2cc(N)ccc2c2ccc(N)cc21`, the Ratio in the assay with Nucleic Acid [1] amounted to 3. The Tm in the assay on Nucleic Acid [2] was found to be 9.9 °C; in the assay with Nucleic Acid [3], 16.8 °C; in the assay with Calf thymus DNA it was 12.4 °C; in the assay with Nucleic Acid [4], 5.3 °C.
As to `N=C(N)c1ccc2c(ccn2CCCCCn2ccc3cc(C(=N)N)ccc32)c1`, the Ratio in the assay with Nucleic Acid [1] stood at 2.6. The Tm in the assay on Nucleic Acid [2] was found to be 15.3 °C; in the assay on Nucleic Acid [3], 12.9 °C; in the assay with Calf thymus DNA, 10.2 °C; with Nucleic Acid [4], 5 °C.
As for `CC(C)NC(=N)c1ccc2[nH]c(-c3ccc(-c4nc5cc(C(=N)NC(C)C)ccc5[nH]4)cc3)nc2c1`, in the assay on Nucleic Acid [1], the Ratio was 8. Further, the Tm stood at 44.3 °C in the assay with Nucleic Acid [2], 45 °C in the assay on Nucleic Acid [3], 22.3 °C in the assay on Calf thymus DNA and 5.6 °C in the assay with Nucleic Acid [4].
In the case of `N=C(N)c1ccc(-c2cc3ccc(C(=N)N)cc3[nH]2)cc1`, the Ratio in the assay on Nucleic Acid [1] stood at 6. Moreover, the Tm in the assay with Nucleic Acid [2] was determined as 38.8 °C; in the assay with Nucleic Acid [3], 40.5 °C; with Calf thymus DNA it was 21.5 °C; in the assay with Nucleic Acid [4] it was 6.9 °C.
